Data reported in US20220323406A1, “METHODS AND COMPOSITIONS FOR DIFFERENTIATING STEM CELLS” (Massachusetts Institute of Technology, priority 2019, published 2022).
Structures can show the parent of a compound that is named as a salt.

Experiments:
[1] = test system: ENR+CD organoids (ISC to Paneth cell differentiation); test: Primary screen: basal (non-stimulated) lysozyme secretion LYZ.NS, 2.5-D 384-well ENR+CD organoid differentiation; format: cell-based, mouse; details: primary screen; for Z.LYZ.NS: standard z score
From the text: (§1) High-throughput screening.

[2] = test system: ENR+CD organoids (ISC to Paneth cell differentiation); test: Primary screen: CCh-stimulated lysozyme secretion LYZ.S, 2.5-D 384-well ENR+CD organoid differentiation; format: cell-based, mouse; details: primary screen
From the text: as §1

ENR+CD organoids = test: Primary screen: ATP (CellTiter-Glo 3D, CTG) cell number/viability, 2.5-D 384-well ENR+CD organoids; details: primary screen; for Z.CTG: standard z score;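 for all read-outs here: compounds given at plating and again on day 3 over a 6-day differentiation from ENR+CV stem-cell-enriched precursors, ATP measured on day 6, plate median as control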
[3] = dose 0.08 uM, FC vs plate median
[4] = dose 0.40 uM, FC vs plate median
[5] = dose 2.00 uM, FC vs plate median
[6] = dose 10.00 uM, FC vs plate median
[7] = dose 0.08 uM, FC relative to plate median
[8] = dose 0.40 uM, FC relative to plate median
[9] = dose 2.00 uM, FC relative to plate median
[10] = dose 10.00 uM, FC relative to plate median

SMILES	Z.LYZ.NS ([1]; dose 0.08 uM)	Z.LYZ.NS ([1]; dose 0.40 uM)	Z.LYZ.NS ([1]; dose 2.00 uM)	Z.LYZ.NS ([1]; dose 10.00 uM)	Z.CTG (ENR+CD organoids; dose 0.08 uM)	Z.CTG (ENR+CD organoids; dose 0.40 uM)	Z.CTG (ENR+CD organoids; dose 2.00 uM)	Z.CTG (ENR+CD organoids; dose 10.00 uM)	Z.LYZ.NS (standard z score) ([1]; dose 0.08 uM)	Z.LYZ.NS (standard z score) ([1]; dose 0.40 uM)	Z.LYZ.NS (standard z score) ([1]; dose 2.00 uM)	Z.LYZ.NS (standard z score) ([1]; dose 10.00 uM)	Dose.FC.LYZ.S (log2 fold change) ([2]; dose 0.08 uM)	Dose.FC.LYZ.S (log2 fold change) ([2]; dose 0.40 uM)	Dose.FC.LYZ.S (log2 fold change) ([2]; dose 10.00 uM)	Z.CTG (standard z score) (ENR+CD organoids; dose 0.08 uM)	Z.CTG (standard z score) (ENR+CD organoids; dose 0.40 uM)	Z.CTG (standard z score) (ENR+CD organoids; dose 2.00 uM)	Z.CTG (standard z score) (ENR+CD organoids; dose 10.00 uM)	Dose.FC.LYZ.NS [1, 7]	further results
Cc1ccc(S(=O)(=O)c2ccc([N+](=O)[O-])o2)cc1 [NSC697923]	0.789	0.441	−0.906	−1.338	−0.123	−0.033	−0.241	−1.867													Dose.FC.LYZ.NS [1, 3]: 0.091 log2 fold change; Dose.FC.LYZ.NS [1, 4]: 0.051 log2 fold change; Dose.FC.LYZ.NS [1, 5]: −0.104 log2 fold change; Dose.FC.LYZ.NS [1, 6]: −0.154 log2 fold change; Dose.FC.LYZ.S [2, 3]: 0.036 log2 fold change; Dose.FC.LYZ.S [2, 4]: 0.108 log2 fold change; Dose.FC.LYZ.S [2, 5]: −0.154 log2 fold change; Dose.FC.LYZ.S [2, 6]: −0.270 log2 fold change; Dose.FC.CTG (ENR+CD organoids; [3]): −0.052 log2 fold change; Dose.FC.CTG (ENR+CD organoids; [4]): −0.014 log2 fold change; Dose.FC.CTG (ENR+CD organoids; [5]): −0.101 log2 fold change; Dose.FC.CTG (ENR+CD organoids; [6]): −0.782 log2 fold change
Cc1cc(Nc2cc(CN3CCOCC3)c3nc(C)c(Cc4ccc(Cl)cc4F)n3n2)n[nH]1 [LY2784544]									1.152	0.033	0.591	−2.439	0.123	0.077	−0.367	0.259	0.148	0.433	−1.984		Dose.FC.LYZ.NS (log2 fold change) ([1]; dose 0.08 uM): 0.132; Dose.FC.LYZ.NS (log2 fold change) ([1]; dose 0.40 uM): 0.004; Dose.FC.LYZ.NS (log2 fold change) ([1]; dose 2.00 uM): 0.068; Dose.FC.LYZ.NS (log2 fold change) ([1]; dose 10.00 uM): −0.280; Dose.FC.LYZ.S (log2 fold change) ([2]; dose 2.00 uM): 0.114; Dose.FC.CTG (log2 fold change) (ENR+CD organoids; dose 0.08 uM): 0.108; Dose.FC.CTG (log2 fold change) (ENR+CD organoids; dose 0.40 uM): 0.062; Dose.FC.CTG (log2 fold change) (ENR+CD organoids; dose 2.00 uM): 0.181; Dose.FC.CTG (log2 fold change) (ENR+CD organoids; dose 10.00 uM): −0.831
CC(=O)OCC(=O)NCCCOc1cccc(CN2CCCCC2)c1 [Roxatidine Acetate HCl]	1.295	−0.256	−0.009	−0.534																0.149 log2 fold change	Dose.FC.LYZ.NS [1, 8]: −0.029 log2 fold change; Dose.FC.LYZ.NS [1, 9]: −0.001 log2 fold change; Dose.FC.LYZ.NS [1, 10]: −0.061 log2 fold change; Dose.FC.LYZ.S [2, 7]: 0.035 log2 fold change; Dose.FC.LYZ.S [2, 8]: 0.099 log2 fold change; Dose.FC.LYZ.S [2, 9]: −0.053 log2 fold change; Dose.FC.LYZ.S [2, 10]: −0.104 log2 fold change; Dose.FC.CTG (ENR+CD organoids; [7]): −0.040 log2 fold change; Dose.FC.CTG (ENR+CD organoids; [8]): 0.021 log2 fold change; Dose.FC.CTG (ENR+CD organoids; [9]): −0.103 log2 fold change; Dose.FC.CTG (ENR+CD organoids; [10]): −0.236 log2 fold change
Cc1ccc(-n2nccn2)c(C(=O)N2CCN(c3nc4cc(Cl)ccc4o3)CC[C@H]2C)c1 [Suvorexant (MK-4305)]	1.775	1.073	1.073	0.670	0.458	0.609	0.895	0.597												0.204 log2 fold change	Dose.FC.LYZ.NS [1, 8]: 0.123 log2 fold change; Dose.FC.LYZ.NS [1, 9]: 0.123 log2 fold change; Dose.FC.LYZ.NS [1, 10]: 0.077 log2 fold change; Dose.FC.LYZ.S [2, 7]: 0.186 log2 fold change; Dose.FC.LYZ.S [2, 8]: 0.142 log2 fold change; Dose.FC.LYZ.S [2, 9]: 0.101 log2 fold change; Dose.FC.LYZ.S [2, 10]: 0.131 log2 fold change; Dose.FC.CTG (ENR+CD organoids; [7]): 0.192 log2 fold change; Dose.FC.CTG (ENR+CD organoids; [8]): 0.255 log2 fold change; Dose.FC.CTG (ENR+CD organoids; [9]): 0.375 log2 fold change; Dose.FC.CTG (ENR+CD organoids; [10]): 0.250 log2 fold change
C=CC(=O)N1CCC[C@@H](n2nc(-c3ccc(Oc4ccccc4)cc3)c3c(N)ncnc32)C1 [Ibrutinib (PCI-32765)]									−0.619	−1.225	−1.763	−1.737	−0.139	−0.206	−0.312	−0.065	−1.112	−1.244	−2.224		
